Results: PubChem BioAssay (NCI)
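Exposure lasted 48 hours, with cells grown in 96-well plates and compounds tested at five concentrations. GI50 is the concentration that inhibits growth by half. The concentration for full growth arrest is given as TGI.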

Assays:
Assay in all cases: DTP human tumour cell line panel, 48 h
[1] = system: KM12 colon
[2] = system: SF-268 CNS
[3] = system: SF-295 CNS
[4] = system: PC-3 prostate
[5] = system: HOP-62 NSCLC
[6] = system: IGROV1 ovarian
[7] = system: RPMI-8226 leukemia
[8] = system: OVCAR-8 ovarian
[9] = system: 786-0 renal
[10] = system: SF-539 CNS
[11] = system: EKVX NSCLC
[12] = system: SN12C renal
[13] = system: HS 578T breast
[14] = system: A549 NSCLC
[15] = system: NCI-H23 lung
[16] = system: MDA-MB-435
[17] = system: NCI-H522 lung
[18] = system: K-562 leukemia
[19] = system: A498 renal
[20] = system: MDA-MB-231 breast
[21] = system: HT29 colon
[22] = system: U251 CNS
[23] = system: SNB-75 CNS
[24] = system: TK-10 renal
[25] = system: SK-OV-3 ovarian
[26] = system: RXF 393 renal

Q: Which results are given for CC(=O)O[C@H](C[C@H](C(C)C)N(C)C(=O)[C@@H](NC(=O)[C@H]1CCCN1C)C(C)C)c1nc(C(=O)N[C@@H](Cc2ccccc2)C[C@H](C)C(=O)O)c(C)s1?
A: GI50 [1]: < 1.67 nM; TGI [1]: > 16700 nM; GI50 [2]: < 1.67 nM; TGI [2]: > 16700 nM; GI50 [3]: < 1.67 nM; TGI [3]: > 16700 nM; GI50 [4]: < 1.67 nM; TGI [4]: > 16700 nM; GI50 [5]: < 1.67 nM; TGI [5]: > 16700 nM; GI50 [6]: 2.41 nM; TGI [6]: > 16700 nM; GI50 [7]: < 1.67 nM; TGI [7]: > 16700 nM; GI50 [8]: 3.3 nM; TGI [8]: > 16700 nM; GI50 [9]: 4.41 nM; TGI [9]: > 16700 nM; GI50 [10]: < 1.67 nM; TGI [10]: 25.6 nM; GI50 [11]: 4.4 nM; TGI [11]: > 16700 nM; GI50 [12]: < 1.67 nM; TGI [12]: > 16700 nM; GI50 [13]: < 1.67 nM; TGI [13]: > 16700 nM; GI50 [14]: 15.5 nM; TGI [14]: > 16700 nM; GI50 [15]: 5.31 nM; TGI [15]: > 16700 nM; GI50 [16]: < 1.67 nM; TGI [16]: < 1.67 nM; GI50 [17]: < 1.67 nM; TGI [17]: < 1.67 nM; GI50 [18]: < 1.67 nM; TGI [18]: > 16700 nM; GI50 [19]: < 1.67 nM; TGI [19]: 9.56 nM; GI50 [20]: 2.92 nM; TGI [20]: > 16700 nM; GI50 [21]: < 1.67 nM; TGI [21]: > 16700 nM; GI50 [22]: < 1.67 nM; TGI [22]: > 16700 nM; GI50 [23]: < 1.67 nM; TGI [23]: > 16700 nM; GI50 [24]: > 16700 nM; TGI [24]: > 16700 nM; GI50 [25]: 2.03 nM; TGI [25]: > 16700 nM; GI50 [26]: < 1.67 nM; TGI [26]: > 16700 nM
